Assay results reported in patent publication US20180188224A1, “METHOD FOR CONSTRUCTING A SENSORY SPACE” (CENTRE SCIENTIFIQUE ET TECHNIQUE DU BATIMENT (CSTB), priority 2015, published 2018).

Legend:
[1] = test system: subject 3; assay: Skin blood microcirculation (SKBF) response to taste stimuli, PCA sensory space (ESRP); assay type: in vivo, human; details: concentration 4
Excerpt: A Periflux PF 5010 (Perimed AB, Sweden) system was chosen, which enables non-invasive monitoring of blood perfusion in the capillaries, arterioles and venules.
The unit of blood perfusion is arbitrary and corresponds to the product of the mean rate of displacement of the red blood cells by their concentration. The system Periflux PF 5010 has a 780 nm, 1 mm diameter laser beam without thermal effect. An optical fiber probe PR407 is used. The low-energy laser beam is transmitted by the probe to the tissue. A portion of the light reflects off the static structures and another portion of the light reflects off the moving blood cells. When the light reflects off a moving cell, the wavelength is modified, which corresponds to the Doppler effect. The scattered light collected by the optical fiber is used to calculate the perfusion value. The measurement is expressed in perfusion units (PU). Recording was carried out on the pad of the index finger of the non-dominant hand, due to the high level of vascularization of this zone. The perfusion signals were recorded by an 8-channel PowerLab PL35088/35 acquisition system; the data were collected at a frequency of 1 kHz and analyzed by the LabChart® software (AD instruments Ltd, United Kingdom).
. Then, the peak was analyzed manually by selecting the whole of the peak and analyzing it with the LabChart® software (FIG. 1).
Several shape parameters were extracted from the signal (i.e. amplitude, duration, gradient). […]
The SKBF responses were analyzed individually by one-way ANOVA (product effect), the subjects having their own “preferential channel” (Lacey, J. I., Bateman, D. E. & VanLEHN, R., 1953, Autonomic response specificity: An experimental study. Psychosomatic Medicine, 15, 8-21). […]

[2] = cited from earlier work; for detection threshold concentration of the basic taste: literature (Purves 2005; Robinson 2005); for detection threshold: representative compound of a primary taste

| Compound | SKBF disturbance (signal width, area of the peak; ANOVA) [1] | detection threshold concentration of the basic taste [2] | detection threshold [2] [g/L] |
| --- | --- | --- | --- |
| O=C(O)CC(O)(CC(=O)O)C(=O)O [Citric acid, citric acid] | significantly stronger disturbance than the others | approximately 2 mmol·l^−1 | 0.384 to 0.5 |
| [Cl-].[Na+] [NaCl, sodium chloride] | significantly stronger disturbance than the others | approximately 10 mmol·l^−1 | 0.584 |
